{"source": "patent US20220347196A1", "about": "“COMPOSITIONS AND METHODS FOR IMPROVING GASTROINTESTINAL FUNCTION IN SUBJECTS WITH RENAL DISEASE” (priority 2021, published 2022)", "key": {"[1]": {"test_system": "subjects with ESRD on hemodialysis with constipation", "assay": "Bowel movement consistency and regularity after 12 week 2′-FL treatment", "type": "in vivo, human", "conditions": "five subjects, 3.3 grams/day for 12 weeks", "description": "Five subjects with ESRD on hemodialysis with constipation were treated with 2′-FL (3.3 grams/day) for 12 weeks."}, "[2]": {"test_system": "Patients With ESRD On Hemodialysis With Constipation", "assay": "Nutrition, hemoglobin and inflammatory biomarkers measured each month during 12 week HMO treatment", "type": "in vivo, human", "description": "Five subjects with ESRD on hemodialysis with constipation were treated with 2′-FL (3.3 grams/day) for 12 weeks. Meanwhile, nutrition, hemoglobin, and inflammatory biomarkers were measured in each of the these patients at each month during the treatment."}, "[3]": {"conditions": "Patient 1, month of treatment 0 (baseline), 3.3 grams/day"}, "[4]": {"conditions": "Patient 1, month of treatment 1, 3.3 grams/day"}, "[5]": {"conditions": "Patient 1, month of treatment 2, 3.3 grams/day"}, "[6]": {"conditions": "Patient 1, month of treatment 3, 3.3 grams/day"}, "[7]": {"conditions": "Patient 2, month of treatment 0 (baseline), 3.3 grams/day"}, "[8]": {"conditions": "Patient 2, month of treatment 1, 3.3 grams/day"}, "[9]": {"conditions": "Patient 2, month of treatment 2, 3.3 grams/day"}, "[10]": {"conditions": "Patient 2, month of treatment 3, 3.3 grams/day"}, "[11]": {"conditions": "Patient 3, month of treatment 0 (baseline), 3.3 grams/day"}, "[12]": {"conditions": "Patient 3, month of treatment 1, 3.3 grams/day"}, "[13]": {"conditions": "Patient 3, month of treatment 2, 3.3 grams/day"}, "[14]": {"conditions": "Patient 3, month of treatment 3, 3.3 grams/day"}, "[15]": {"conditions": "Patient 4, month of tx 0 (baseline), 3.3 grams/day"}, "[16]": {"conditions": "Patient 4, month of tx 1, 3.3 grams/day"}, "[17]": {"conditions": "Patient 4, month of tx 2, 3.3 grams/day"}, "[18]": {"conditions": "Patient 4, month of tx 3, 3.3 grams/day"}, "[19]": {"conditions": "Patient 5, month of treatment 0 (baseline), 3.3 grams/day"}, "[20]": {"conditions": "Patient 5, month of treatment 1, 3.3 grams/day"}, "[21]": {"conditions": "Patient 5, month of treatment 2, 3.3 grams/day"}, "[22]": {"conditions": "Patient 5, month of treatment 3, 3.3 grams/day"}, "[23]": {"conditions": "five subjects, 3.3 grams/day for 12 weeks"}}, "data": [{"substance": "2′-fucosyllactose [2′-FL]", "values": [{"measurement": "bowel movement consistency", "setting": "[1]", "result": "from hard stool to soft"}, {"measurement": "bowel movement regularity (on average)", "setting": "[1]", "result": "from one bowel movement every other day to one bowel movement every day"}, {"measurement": "Albumin", "setting": "[2]; [3]", "result": 3.6, "unit": "g/dL"}, {"measurement": "Ferritin", "setting": "[2]; [3]", "result": 548, "unit": "ng/mL"}, {"measurement": "Hg", "setting": "[2]; [3]", "result": 10.6, "unit": "g/dL"}, {"measurement": "Albumin", "setting": "[2]; [4]", "result": 3.7, "unit": "g/dL"}, {"measurement": "CRP", "setting": "[2]; [4]", "result": 0.7, "unit": "mg/L"}, {"measurement": "Ferritin", "setting": "[2]; [4]", "result": 546, "unit": "ng/mL"}, {"measurement": "Hg", "setting": "[2]; [4]", "result": 10.5, "unit": "g/dL"}, {"measurement": "Albumin", "setting": "[2]; [5]", "result": 3.8, "unit": "g/dL"}, {"measurement": "CRP", "setting": "[2]; [5]", "result": 0.5, "unit": "mg/L"}, {"measurement": "Ferritin", "setting": "[2]; [5]", "result": 503, "unit": "ng/mL"}, {"measurement": "Hg", "setting": "[2]; [5]", "result": 11.2, "unit": "g/dL"}, {"measurement": "Albumin", "setting": "[2]; [6]", "result": 3.5, "unit": "g/dL"}, {"measurement": "CRP", "setting": "[2]; [6]", "result": 0.3, "unit": "mg/L"}, {"measurement": "Ferritin", "setting": "[2]; [6]", "result": 364, "unit": "ng/mL"}, {"measurement": "Hg", "setting": "[2]; [6]", "result": 10.7, "unit": "g/dL"}, {"measurement": "Albumin", "setting": "[2]; [7]", "result": 4.2, "unit": "g/dL"}, {"measurement": "Ferritin", "setting": "[2]; [7]", "result": 1250, "unit": "ng/mL"}, {"measurement": "Hg", "setting": "[2]; [7]", "result": 11.2, "unit": "g/dL"}, {"measurement": "Albumin", "setting": "[2]; [8]", "result": 4.3, "unit": "g/dL"}, {"measurement": "CRP", "setting": "[2]; [8]", "result": 6.2, "unit": "mg/L"}, {"measurement": "Ferritin", "setting": "[2]; [8]", "result": 1188, "unit": "ng/mL"}, {"measurement": "Hg", "setting": "[2]; [8]", "result": 11.3, "unit": "g/dL"}, {"measurement": "Albumin", "setting": "[2]; [9]", "result": 4.2, "unit": "g/dL"}, {"measurement": "CRP", "setting": "[2]; [9]", "result": 4.3, "unit": "mg/L"}, {"measurement": "Ferritin", "setting": "[2]; [9]", "result": 1000, "unit": "ng/mL"}, {"measurement": "Hg", "setting": "[2]; [9]", "result": 10.6, "unit": "g/dL"}, {"measurement": "Albumin", "setting": "[2]; [10]", "result": 4.2, "unit": "g/dL"}, {"measurement": "CRP", "setting": "[2]; [10]", "result": 2.3, "unit": "mg/L"}, {"measurement": "Ferritin", "setting": "[2]; [10]", "result": 899, "unit": "ng/mL"}, {"measurement": "Hg", "setting": "[2]; [10]", "result": 10.2, "unit": "g/dL"}, {"measurement": "Albumin", "setting": "[2]; [11]", "result": 3.9, "unit": "g/dL"}, {"measurement": "Ferritin", "setting": "[2]; [11]", "result": 1243, "unit": "ng/mL"}, {"measurement": "Hg", "setting": "[2]; [11]", "result": 10.5, "unit": "g/dL"}, {"measurement": "Albumin", "setting": "[2]; [12]", "result": 4, "unit": "g/dL"}, {"measurement": "CRP", "setting": "[2]; [12]", "result": 19, "unit": "mg/L"}, {"measurement": "Ferritin", "setting": "[2]; [12]", "result": 1135, "unit": "ng/mL"}, {"measurement": "Hg", "setting": "[2]; [12]", "result": 11.3, "unit": "g/dL"}, {"measurement": "Albumin", "setting": "[2]; [13]", "result": 3.9, "unit": "g/dL"}, {"measurement": "CRP", "setting": "[2]; [13]", "result": 1.9, "unit": "mg/L"}, {"measurement": "Ferritin", "setting": "[2]; [13]", "result": 827, "unit": "ng/mL"}, {"measurement": "Hg", "setting": "[2]; [13]", "result": 10.9, "unit": "g/dL"}, {"measurement": "Albumin", "setting": "[2]; [14]", "result": 4, "unit": "g/dL"}, {"measurement": "CRP", "setting": "[2]; [14]", "result": 1.6, "unit": "mg/L"}, {"measurement": "Ferritin", "setting": "[2]; [14]", "result": 907, "unit": "ng/mL"}, {"measurement": "Hg", "setting": "[2]; [14]", "result": 11.2, "unit": "g/dL"}, {"measurement": "Albumin", "setting": "[2]; [15]", "result": 3.9, "unit": "g/dL"}, {"measurement": "Ferritin", "setting": "[2]; [15]", "result": 1487, "unit": "ng/mL"}, {"measurement": "Hg", "setting": "[2]; [15]", "result": 10.8, "unit": "g/dL"}, {"measurement": "Albumin", "setting": "[2]; [16]", "result": 3.9, "unit": "g/dL"}, {"measurement": "CRP", "setting": "[2]; [16]", "result": 2, "unit": "mg/L"}, {"measurement": "Ferritin", "setting": "[2]; [16]", "result": 1208, "unit": "ng/mL"}, {"measurement": "Hg", "setting": "[2]; [16]", "result": 10.5, "unit": "g/dL"}, {"measurement": "Albumin", "setting": "[2]; [17]", "result": 3.9, "unit": "g/dL"}, {"measurement": "CRP", "setting": "[2]; [17]", "result": 1.5, "unit": "mg/L"}, {"measurement": "Ferritin", "setting": "[2]; [17]", "result": 749, "unit": "ng/mL"}, {"measurement": "Hg", "setting": "[2]; [17]", "result": 11.3, "unit": "g/dL"}, {"measurement": "Albumin", "setting": "[2]; [18]", "result": 3.8, "unit": "g/dL"}, {"measurement": "CRP", "setting": "[2]; [18]", "result": 1.5, "unit": "mg/L"}, {"measurement": "Ferritin", "setting": "[2]; [18]", "result": 985, "unit": "ng/mL"}, {"measurement": "Hg", "setting": "[2]; [18]", "result": 11.4, "unit": "g/dL"}, {"measurement": "Albumin", "setting": "[2]; [19]", "result": 4.1, "unit": "g/dL"}, {"measurement": "Ferritin", "setting": "[2]; [19]", "result": 580, "unit": "ng/mL"}, {"measurement": "Hg", "setting": "[2]; [19]", "result": 12.2, "unit": "g/dL"}, {"measurement": "Albumin", "setting": "[2]; [20]", "result": 4.1, "unit": "g/dL"}, {"measurement": "CRP", "setting": "[2]; [20]", "result": 27.5, "unit": "mg/L"}, {"measurement": "Ferritin", "setting": "[2]; [20]", "result": 431, "unit": "ng/mL"}, {"measurement": "Hg", "setting": "[2]; [20]", "result": 12.6, "unit": "g/dL"}, {"measurement": "Albumin", "setting": "[2]; [21]", "result": 3.9, "unit": "g/dL"}, {"measurement": "CRP", "setting": "[2]; [21]", "result": 28, "unit": "mg/L"}, {"measurement": "Ferritin", "setting": "[2]; [21]", "result": 313, "unit": "ng/mL"}, {"measurement": "Hg", "setting": "[2]; [21]", "result": 12.2, "unit": "g/dL"}, {"measurement": "Albumin", "setting": "[2]; [22]", "result": 3.8, "unit": "g/dL"}, {"measurement": "CRP", "setting": "[2]; [22]", "result": 12.4, "unit": "mg/L"}, {"measurement": "Ferritin", "setting": "[2]; [22]", "result": 332, "unit": "ng/mL"}, {"measurement": "Hg", "setting": "[2]; [22]", "result": 12, "unit": "g/dL"}, {"measurement": "anemia (hemoglobin), average", "setting": "[2]; [23]", "result": "improvement or stabilization"}, {"measurement": "nutrition (albumin), average", "setting": "[2]; [23]", "result": "improvement or stabilization"}, {"measurement": "serum inflammatory marker CRP (C-reactive protein), average", "setting": "[2]; [23]", "result": "significant and persistent reduction"}, {"measurement": "serum inflammatory marker ferritin, average", "setting": "[2]; [23]", "result": "significant and persistent reduction"}]}]}
